Test results as given in patent publication US10463646B2, “Micellar polymer-flavonoid conjugate nanocomplex” (Agency for Science, Technology and Research, priority 2014, dated 2019).

Tests used:
[1] = Body weight / toxicity in the A498-luc xenograft study; type: in vivo, mouse
Protocol: (§1) To study the toxicity and therapeutic effect, in vivo studies were conducted on the micellar nanocomplexes. A subcutaneous renal cell carcinoma model was established. Adult female Balb/c athymic, immunoincompetent nude mice (average weight=19 g, age=6-8 weeks) were used.
To study the therapeutic effect of SU/PEG-EGCG micellar nanocomplexes by intravenous injection, a xenograft tumor model was established by inoculating 6×10^6 A498-luc cells subcutaneously into the root of the left thigh of the mouse. On day 6 after tumor inoculation, the animals were divided into four groups for tail vein injection of various solutions (n=8 per group) twice weekly for 5 weeks, while one group received daily SU gavaging at 60 mg/kg. For the tail vein injection, a volume of 200 μl of sample solution was used.
To monitor bioluminescent signals from A498-luc cells, isoflurane gas-anesthetized animals were injected intraperitoneally with 200 μl of D-luciferin (5 mg ml^−1, Promega) in PBS, and placed on a warmed stage (30° C.) inside the camera box of the IVIS imaging system (Xenogen, Alameda, Calif., USA) with a CCD camera. […] Images and measurements of luminescent signals were acquired and analyzed with the Xenogen imaging software v3.2 and quantified as photons/s. Tumor size and body weight were measured on a weekly basis. […]

[2] = Body weight in the ACHN xenograft oral study; type: in vivo, mouse; conditions: oral gavage daily
Protocol: as §1
To investigate the therapeutic effect of SU/PEG-mEGCG MNC via oral administration, a xenograft tumor model was established by inoculating 4×10^6 ACHN cells suspended in 100 μl of PBS and 100 μl of Matrigel (BD Bioscience) subcutaneously into the root of the right thigh of the mouse. Once the tumors reached a volume of 200 mm^3, the animals were divided into four groups for oral gavage of various solutions (n=8 per group) daily for 5 weeks: control (citrate buffer pH5), SU/PEG-mEGCG 8:1 (SU at 15 mg/kg), SU at 15 and 40 mg/kg. Tumors were measured twice weekly with a digital caliper, and the tumor volumes (mm^3) were calculated from the following formula: volume=(length×width^2)/2 (FIGS. 16 and 17).

[3] = 0.05 M phosphate-buffered saline (PBS) (pH 7.4) at 37° C.; cited from earlier work
[4] = rat; cited from earlier work

Row | Structure (SMILES) | body weight ([1]; daily oral gavage 60 mg/kg, one week after commencement of treatment) | toxicity of oral dose ([1]; mouse, in vivo, po, 60 mg/kg/day) | weight loss ([2]; SU at 15 mg/kg) | body weight ([2]; SU at 40 mg/kg) | half-life [3] | effect of EGCG administration on plasma concentrations of SU [4]
1 | CCN(CC)CCNC(=O)c1c(C)[nH]c(/C=C2\C(=O)Nc3ccc(F)cc32)c1C [SU, Sunitinib] | significant weight loss | too toxic | not observed | significant weight loss |  | 
2 | O=C(O[C@@H]1Cc2c(O)cc(O)cc2O[C@@H]1c1cc(O)c(O)c(O)c1)c1cc(O)c(O)c(O)c1 [EGCG, (−)-Epigallocatechin-3-gallate] |  |  |  |  | less than 30 minutes | markedly reduced
